Assay results taken from patent publication US20250319067A1, “Improved Pharmacokinetics of Tryptamine Prodrugs” (Reunion Neuroscience, Inc., priority 2023, published 2025).
“Also recorded” adds a separate entry of the source. Structures can show the parent of a compound that is named as a salt.

Columns and labels:
[1] = tested on: rats; assay: GLP 14-day extended single SC dose toxicity study in rats
Experimental: (§1) In a GLP 14-day extended single SC dose toxicity study in rats, doses of 0 (PBS), 10, 25 and 75 mg/kg were evaluated. Animals were necropsied on Study Day 2 and Day 14 (also referred to as Recovery Day 13) post-dosing.
(§2) A non-GLP dose range study was performed in the dog in order to determine an MTD. Single SC doses of 7.5, 15 and 20 mg/kg were evaluated.

[2] = as above; details: female, Sprague Dawley, rat, in vivo, subcutaneous
Experimental: as §1, §2

[3] = target: human ether-a-go-go-related gene (hERG) (Homo sapiens, UniProt Q12809); assay: hERG tail current assay; format: cell-based; details: 30 μM as zwitterion (highest concentration tested)
[4] = tested on: healthy females; assay: Phase 1 FIH study: Mystical Experience Questionnaire (MEQ30); format: in vivo, human; details: 33 mg
Experimental: (§3) The study was a double-blind, randomized, placebo-controlled Phase 1 single ascending dose study in up to 6 cohorts in healthy females. Eligibility was assessed during a screening period of up to 28 days prior to enrollment. For the treatment period, subjects were admitted to the clinical research unit (CRU) one day prior to the dosing (Day −1). On Day 1, all subjects will received the assigned SC dose of RE104 HCl or placebo in a fed state (after domiciling overnight and consuming a planned evening meal on Day −1 and morning meal on Day 1 while at the CRU). Subjects were allowed to select snacks from a planned menu from 4 hours following dosing. Subjects were discharged from the clinic on Day 2 (−24 hours post-dose) after all required study procedures were completed and if deemed medically fit. Subjects returned to the clinic on Day 10 (±2 days) for a follow up visit.
The Mystical Experience Questionnaire (MEQ30) is a validated questionnaire that assesses individual episodes of a mystical experience produced by classic hallucinogens (Barrett et al. 2015). The validated MEQ30 uses thirty questions across 4 areas of experience: (i) Mystical (including items concerning internal unity, external unity, noetic quality, and sacredness); (ii) Positive mood; (iii) Transcendence of time and space; and (iv) Ineffability. The subjects will be asked to rate each item of the MEQ30 on a 6-point scale. FIG. 3 sets out the revised MEQ30 that was used.

[5] = tested on: healthy females; assay: Phase 1 FIH single ascending dose study: safety and tolerability (AEs); format: in vivo, human
Experimental: as §3
Six (6) cohorts were enrolled in the study. Six (6) single doses were tested in 6 cohorts (Cohort 1 to Cohort 6) of 8 healthy female subjects (6 active and 2 placebo), as indicated in FIG. 1 and Table 3.
The starting dose was 5.5 mg RE104 HCl. Sentinels were used in all cohorts. Within each cohort, 2 subjects were treated first: 1 subject received RE104 HCl and 1 subject received placebo.
The study was monitored by a safety review committee (SRC). […] Safety, tolerability, and available PK data were assessed by the SRC between each cohort before ascending to the next dose level (Table 3). After each cohort dosing was complete, the SRC met to discuss dose escalation. Escalation to the next higher dose level occurred only after evaluation of the safety and tolerability data up to and including at least 24 hours post-dose of all evaluable subjects in the previous dose cohort. Available PK results were requested for determination of dose escalation, as deemed necessary.
Dosing took place at a time point agreed to with the investigational pharmacy and acceptable to the investigator. RE104 HCl or placebo were administered as a SC injection in the upper arm. Subjects received RE104 HCl or placebo in a fed state. The time of administration of RE104 HCl or placebo was be recorded in the eCRF. The regimen used is outlined in Table 3.
Within each cohort, 2 sentinel subjects were treated first: 1 subject received RE104 HCl and 1 subject received placebo. […] All drug administration was be done under direct medical supervision. Study subjects were overseen during the potentially psychoactive study drug period by professionals trained to monitor psychedelic experiences.

[6] = tested on: healthy females; assay: Phase 1 FIH study: modified Drug Effect Questionnaire (DEQ-High); format: in vivo, human
Experimental: as §3
The Drug Effect Questionnaire (DEQ) Feel/High is widely used in studies of acute subjective response to a variety of substances, to assess two key aspects of subjective experience: (1) the strength of substance effects and (2) desirability of substance effects (Morean et al., 2013). The modified DEQ assesses the extent to which subjects (1) feel any substance effect(s) and (2) feel high. This version of the DEQ includes the following items: “Do you feel a drug effect right now?” (FEEL); “Are you high right now?” (HIGH). FIG. 2 sets out the modified DEQ that was used.
The modified DEQ was used as an 11-point numeric rating scale (0-10) administered by a qualified staff member. The subjects were asked to verbally respond to indicate how strongly they feel the drug effect and how high they feel on the scale of 0-10 after being administered the study drug (Kollltveit et al., 2020).

[7] = tested on: rats; assay: Behavioral safety pharmacology study in rats; format: in vivo; details: rat
Experimental: In a behavioral study in rats, single SC administration of 10, 25 or 50 mg/kg RE104 HCl induced significant acute, and reversible neuro-pharmacological effects; however, all observations were attributed to exaggerated pharmacologic effects at the serotonin receptor of the test article (i.e., SS). The incidence and duration of observations were dose related.

[8] = tested on: conscious telemetered beagle dogs; assay: Cardiovascular study in conscious telemetered beagle dogs; format: in vivo; details: dog
[9] = tested on: male rats; assay: Respiratory function study in male rats; format: in vivo, rat; details: single SC 10, 25, and 50 mg/kg
Experimental: In a respiratory function study in male rats, at single SC doses of 10, 25, and 50 mg/kg, RE104 HCl produced increases in respiration rate (8-28%) and decreases in tidal volume (28-30%) and minute volume (24-31%). All these changes were transient and returned to pre-dose values by the 6-hour post-dose reading. Based upon the small magnitude and the transient nature of these changes, the changes were not considered adverse.

[10] = Prodrug cleavage in human plasma; format: in vitro ADME; details: human plasma (data not shown)
Experimental: Mean values from 3 replicate assays are reported. See the Supplemental Methods for additional details.
Triplicate aliquots (50 μL) of each spiked plasma solution were immediately added to 200 μL of ice-cold methanol/acetonitrile solution (50:50 v/v) containing the internal standards to generate time zero samples. Spiked plasma solutions were incubated at 37° C. in an orbital shaker set to 75 rpm, and 50-μL samples were taken in triplicate after 30 minutes and 1, 2, and 4 hours of incubation. Each sample was immediately added to 200 μL ofice-cold methanol/acetonitrile solution containing the internal standard(s) to terminate the reaction. Samples were mixed by vortex and then stored at −80° C. until analysis.
Calibration standards were prepared in plasma for each species and analyzed in batches by LC-MS/MS. Sample batches consisted of 3 replicates of a system suitability standard (containing the analyte and internal standard), the appropriate calibration standards in ascending order including a blank sample without internal standard, a zero sample (with internal standard), and at least 6 nonzero standards and the assay samples, followed by the 3 replicates of the system suitability sample.

[11] = tested on: male Wistar rats; assay: Forced swim test (FST) in rats; format: in vivo, rat
[12] = Metabolite profiling in monkey plasma after SC RE104; format: in vivo, cynomolgus monkey; details: pooled plasma 0 to 12 hours post dose, SC 0.5 mg/kg RE104
Description: Blood samples were centrifuged to obtain plasma.

[13] = in vivo; cited from earlier work
[14] = rat, oral Gymnopilus spectabilis (Chen et al.); cited from earlier work
[15] = tested on: humans; details: humans; cited from earlier work

Chain of human ether-a-go-go-related gene (hERG) (Q12809 whole entry): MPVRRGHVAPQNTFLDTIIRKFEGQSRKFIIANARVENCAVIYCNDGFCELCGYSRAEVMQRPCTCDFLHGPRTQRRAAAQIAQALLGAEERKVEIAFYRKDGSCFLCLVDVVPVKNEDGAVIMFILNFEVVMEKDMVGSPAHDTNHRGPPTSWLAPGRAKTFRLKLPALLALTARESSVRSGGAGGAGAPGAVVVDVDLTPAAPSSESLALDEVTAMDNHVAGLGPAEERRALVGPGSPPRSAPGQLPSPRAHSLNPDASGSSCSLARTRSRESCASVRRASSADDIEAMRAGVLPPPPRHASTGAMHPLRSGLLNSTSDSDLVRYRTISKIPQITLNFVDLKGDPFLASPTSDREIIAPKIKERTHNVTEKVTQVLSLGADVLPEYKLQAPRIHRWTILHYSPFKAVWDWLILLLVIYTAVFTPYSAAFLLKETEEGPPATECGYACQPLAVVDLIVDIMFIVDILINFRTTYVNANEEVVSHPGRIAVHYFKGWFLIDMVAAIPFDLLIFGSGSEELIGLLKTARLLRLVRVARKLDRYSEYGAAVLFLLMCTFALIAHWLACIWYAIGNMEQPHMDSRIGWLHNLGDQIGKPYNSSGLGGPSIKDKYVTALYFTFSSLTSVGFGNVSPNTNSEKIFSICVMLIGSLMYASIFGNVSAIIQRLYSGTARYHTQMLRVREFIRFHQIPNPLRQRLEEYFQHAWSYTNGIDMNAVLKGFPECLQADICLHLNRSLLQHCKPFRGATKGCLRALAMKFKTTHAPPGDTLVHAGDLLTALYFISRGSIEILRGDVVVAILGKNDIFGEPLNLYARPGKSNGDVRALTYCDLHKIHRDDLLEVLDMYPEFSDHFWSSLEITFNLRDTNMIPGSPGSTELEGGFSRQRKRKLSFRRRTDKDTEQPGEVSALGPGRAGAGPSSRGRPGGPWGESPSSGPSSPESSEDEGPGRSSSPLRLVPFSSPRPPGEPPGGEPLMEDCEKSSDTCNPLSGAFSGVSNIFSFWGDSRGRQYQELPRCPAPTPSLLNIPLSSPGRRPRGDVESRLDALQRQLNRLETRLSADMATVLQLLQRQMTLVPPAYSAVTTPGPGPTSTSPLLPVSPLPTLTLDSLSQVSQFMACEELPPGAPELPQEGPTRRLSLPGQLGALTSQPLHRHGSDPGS

SMILES: CC(C)N(CCc1c[nH]c2cccc(OC(=O)CCCC(=O)O)c12)C(C)C [RE104 HCl, 4-Glutaroyl-3-(2-diisopropylaminoethyl)-1H-indole hydrochloride]
- Fold Lower than Scaled NOAEL Dose ([1]; Cohort 1, 5.5 mg RE104 HCl): 19
- Fold Lower than Scaled NOAEL Dose ([1]; Cohort 2, 11 mg RE104 HCl): 9.7
- Fold Lower than Scaled NOAEL Dose ([1]; Cohort 3, 22 mg RE104 HCl): 4.9
- Fold Lower than Scaled NOAEL Dose ([1]; Cohort 4, 33 mg RE104 HCl): 3.2
- MRSD ([1]; from rat NOAEL, 10-fold safety margin): 9.7 mg
- NOAEL at 14 days [2]: 10 mg/kg
- decrease in hERG current amplitude [3]: 5.9 ± 1.6%
- MEQ total score and domain scores [4]: ≥ 60%
- injection site adverse reactions ([5]; SC injection in the upper arm): No injection site adverse reactions were reported
- serious AEs ([5]; doses up to and including 44 mg): no serious AEs
- blood pressure, vital sign, clinical laboratory, electrocardiogram findings ([5]; doses up to and including 44 mg, hydrochloride): no evident blood pressure effects; also recorded: no clinically significant vital sign, clinical laboratory, or electrocardiogram findings
- reduction of psychoactive experience relative to historical evidence with psilocybin ([6]; 33 mg): 50%
- time of peak activity ([6]; 33 mg SC): approx 1 h
- time of neuro-pharmacological effects ([7]; single SC 10 mg/kg): effects were observed at 30 minutes (min) to 1 hour (h)
- time of neuro-pharmacological effects ([7]; single SC 25 mg/kg): effects were observed to 6 h
- time of neuro-pharmacological effects ([7]; single SC 50 mg/kg): effects were noted through 6 h post-dose but were resolved by 24 h
- effects on cardiac rhythm, ECG parameters or body temperature ([8]; SC 1, 3 or 8 mg/kg): No significant biologically relevant effects
- effect on heart rate and blood pressure ([8]; SC 3 and 8 mg/kg): Transient increases in heart rate and blood pressure
- effect on heart rate and blood pressure ([8]; single SC 1 mg/kg): small transient increase in heart rate but had no effect on blood pressure
- decreases in minute volume [9]: 24-31%
- decreases in tidal volume [9]: 28-30%
- increases in respiration rate [9]: 8-28%

SMILES: CN(C)CCc1c[nH]c2cccc(OC(=O)CCCC(=O)O)c12.Cl [RE109, psilocin-4-glutarate, reference compound]
- cleavage to psilocin [10]: rapid cleavage to psilocin
- climbing as share of escape behaviors ([11]; rat FST, day 28): 26%
- swimming as share of escape behaviors ([11]; rat FST, day 28): 74%
- mean swimming time relative to vehicle ([11]; rat FST, single 1 mg/kg dose): significantly increased
- mean immobility time vs vehicle ([11]; rat FST, single 1 mg/kg dose, day 14 and 28): significant decrease
- duration of distinctive serotonergic behaviors ([11]; rat, dosing day, 1 mg/kg): approximately 3 hours

SMILES: CC(C)N(CCc1c[nH]c2cccc(OC3OC(C(=O)O)C(O)C(O)C3O)c12)C(C)C (stereo not drawn) [glucuronidation of 4-OH-DiPT]
- share of the total peak area [12]: 24.5%

SMILES: CN(C)CCc1c[nH]c2cccc(O)c12 [psilocin]
- oral bioavailability in man [13]: approximately 53%
- distribution half-life [14]: 117 min
- elimination half-life [14]: 148 min

SMILES: CN(C)CCc1c[nH]c2cccc(OP(=O)(O)O)c12 [psilocybin]
- duration of psychedelic state / effects [15]: 6 to 8 h
